One data set relates to HCV RNA replicon. Put plainly: HCV RNA replicon assay. The data set is classed as cell-based, hepatitis C virus (HCV). Conditions: for Activity (% inhibition virus control) / outcome of primary test: primary, single-dilution test; for EC50: Hepatitis C virus. On the procedure: A number of […] 7-deazaneplanocin compounds were tested in vitro to determine activity against hepatitis C virus (HCV).

Data set [1] in a line: cytotoxicity in the HCV RNA replicon assay. Conditions: for Cytotoxicity (% cell control): primary, single-dilution test.
A further data set deals with SARS virus. It counts as cell-based. Conditions: against SARS virus.
Data set [2] in a line: stability of the isolated compound on standing. Conditions: room temperature, over several days. The data set is classed as physicochemical.
A further data set relates to Cowpox. Put plainly: microbe, parasite or virus in culture. The data set is classed as cell-based, cowpox virus.
A further data set relates to Vaccinia. In words: microbe, parasite or virus in culture. It counts as cell-based, vaccinia virus.
Another data set concerns HBV strain WT. In words: HBV DR Assay, strain WT. It counts as cell-based.
The test system of data set [3] is Hepatitis B Virus. In words: in vitro anti-HBV activity, VIR (extracellular virion HBV DNA). The data set is classed as cell-based. Conditions: VIR: extracellular virion HBV DNA. How it is done: (§1) In the first biological experiment, a number of 7-deazaneplanocin compounds were tested in vitro to determine activity against hepatitis B virus (HBV).
Data set [4] can be described thus: toxicity (CC50) in the anti-HBV test. The data set is classed as cell-based.
Data set [5] relates to Hepatitis B Virus. Put plainly: in vitro anti-HBV activity, RI (intracellular HBV DNA replication intermediates). It counts as cell-based. On the procedure: as §1
Data set [6] deals with vacinnia, cowpox and SARS viruses. It counts as cell-based.
The next data set concerns vacinnia virus. The data set is classed as cell-based. To be noted: against vacinnia virus.
In another data set the test system is cowpox virus. The data set is classed as cell-based. Conditions: against cowpox virus.
Setting [7] is: HT20, HT @ 20 μM, read-out: EC50.

Entries after “also recorded” stand apart in the source; their conditions may differ. Where two headings read alike, the source gives them in different places.

Consider `Nc1ncnc2c1c(F)cn2[C@@H]1C=C(CO)C(O)C1O` (some centres unmarked), for which, in the data set with HCV RNA replicon, the “Activity (% inhibition virus control)” value amounted to 9.5% and the “outcome of primary test” value is reported as “Inactive in primary, single-dilution test”. The “Cytotoxicity (% cell control)” value in data set [1] was determined as 112.7%.

In turn, `Nc1ncnc2c1c(Cl)cn2[C@@H]1C=C(CO)C(O)C1O` (some centres unmarked) registered an EC50 in the data set with HCV RNA replicon (HT @ 100 μM) of 14.7 µM. For the same compound, the “Activity (% inhibition virus control)” value with HCV RNA replicon turned out to be 70.6%. The 50% inhibitory concentration (IC50) in [1] (HT @ 100 μM) came out at 50.1 µM. Moreover, the “Cytotoxicity (% cell control)” value in data set [1] came out at 81.2%.

`Nc1ncnc2c1c(Br)cn2[C@@H]1C=C(CO)C(O)C1O` (some centres unmarked): the EC50 with HCV RNA replicon (setting [7]) worked out at 10.5 µM; in the data set on HCV RNA replicon (HT @ 100 μM, read-out: EC50), 16.7 µM. Also, the “Activity (% inhibition virus control)” value in the data set on HCV RNA replicon worked out at 80.9%. In addition, the IC50 in [1] (HT20, HT @ 20 μM) was over 20 µM; in [1] (HT @ 100 μM) it was 41.7 µM. The “Cytotoxicity (% cell control)” value in data set [1] was found to be 76.3%.

Consider `Nc1ncnc2c1c(I)cn2[C@@H]1C=C(CO)C(O)C1O` (some centres unmarked), for which the EC50 in the data set on HCV RNA replicon (HT @ 5 μM, read-out: EC50) was found to be 3.07 µM; with HCV RNA replicon (HT @ 100 μM, read-out: EC50), 2.14 µM. For the same compound, the “Activity (% inhibition virus control)” value in the data set with HCV RNA replicon turned out to be 89.7%. The half-maximal inhibitory concentration (IC50) in [1] (HT @ 5 μM) is over 5 µM; in data set [1] (HT @ 100 μM), 15 µM. Also, the “Cytotoxicity (% cell control)” value in [1] is on record as 35.2%.

In the case of `Nc1ncnc2c1c([N+](=O)[O-])cn2[C@@H]1C=C(CO)C(O)C1O` (some centres unmarked), in the data set on HCV RNA replicon, the “Activity (% inhibition virus control)” value amounted to 31.5%. In addition, in data set [1], the “Cytotoxicity (% cell control)” value turned out to be 101.5%.

As for `N#Cc1cn([C@@H]2C=C(CO)C(O)C2O)c2ncnc(N)c12` (some centres unmarked), in the data set on HCV RNA replicon, the “Activity (% inhibition virus control)” value is 0.5% and the “outcome of primary test” value is recorded as “Inactive in primary, single-dilution test”. Moreover, the “Cytotoxicity (% cell control)” value in data set [1] was 103.3%.

With `NC(=O)c1cn([C@@H]2C=C(CO)C(O)C2O)c2ncnc(N)c12` (some centres unmarked), the EC50 with HCV RNA replicon (HT not given, read-out: EC50) amounted to 1.85 µM. Besides, the “Activity (% inhibition virus control)” value with HCV RNA replicon was determined as 93.5%. Moreover, the concentration for half-maximal inhibition (IC50) in [1] (HT not given) turned out to be 11.8 µM. Also, the “Cytotoxicity (% cell control)” value in [1] is recorded as 44.2%.

Take `C=Cc1cn([C@@H]2C=C(CO)C(O)C2O)c2ncnc(N)c12` (some centres unmarked): the “Activity (% inhibition virus control)” value in the data set on HCV RNA replicon was determined as 49.2%. Moreover, the “Cytotoxicity (% cell control)” value in data set [1] came to 99.7%.

`Nc1nc2c(ccn2[C@@H]2C=C(CO)C(O)C2O)c(=O)[nH]1` (some centres unmarked): in the data set with HCV RNA replicon, the “Activity (% inhibition virus control)” value was 10.1% and the “outcome of primary test” value is given as “Inactive in primary, single-dilution test”. Moreover, the “Cytotoxicity (% cell control)” value in [1] turned out to be 99.8%.

In turn, “1-(4,5-Dihydroxy-3-hydroxymethyl-cyclopenten-2-enyl)-1H-[1,2,4]triazole-3-carboxylic acid amide [Compound 17a]” returned a concentration for a half-maximal effect (EC50) in the data set on SARS virus of 21 µM.

“7-Deaza-7-Amino-Neplanocin A [Compound 23]”: the stability result in data set [2] is “not stable; also recorded: slowly decomposed in room temperature”.

In the case of `Nc1ncnc2c1ccn2[C@@H]1C=C(CO)[C@@H](O)[C@H]1O` [7-deaza neplanocin A], the EC90 was determined as 4.6 µM in the data set with Cowpox (Cowpox, HFF cells, CPE reduction assay) and 21.5 µM with Vaccinia (Vaccinia, HFF cells, CPE reduction assay). Also, the EC50 in the data set with Cowpox (Cowpox, HFF cells, CPE reduction assay, read-out: EC50) amounted to 1.2 µM; in the data set with Vaccinia (Vaccinia, HFF cells, CPE reduction assay, read-out: EC50), 3.4 µM. In addition, the CC50 in the data set on HFF cells is over 300 µM. For the same compound, the “cytotoxicity (none up to)” value with HFF cells is over 300 µM.

Regarding `CC(C)(C)C(=O)OCOP(=O)(COCCn1cnc2c(N)ncnc21)OCOC(=O)C(C)(C)C` [ADV], in the data set with HBV strain WT, the EC50 was 1.3 µM and the 90% effect level (EC90) was put at 6 µM.

Consider `Nc1ccn(C[C@@H](CO)OCP(=O)(O)O)c(=O)n1` [Cidofovir, reference compound], for which the concentration giving a half-maximal response (EC50) in the data set with Cowpox (Cowpox virus, HFF) worked out at 5 µM; in the data set with Vaccinia (Orthopoxvirus vaccinia, HFF), 4 µM.

In the case of `Nc1ccn([C@@H]2CS[C@H](CO)O2)c(=O)n1` [Compound 3TC], in the data set with HBV strain WT, a half-maximal response (EC50) required 0.2 µM and it took 0.6 µM to reach the 90% level (EC90).

With `Nc1ncnc2c1c(F)cn2[C@@H]1C=C(CO)[C@@H](O)[C@H]1O` [Compound 10], in the data set with Hepatitis B Virus [3], the 50% effective concentration (EC50) was over 10 µM and the 90% effect concentration (EC90) is over 10 µM. In data set [4], this compound showed a 50% cytotoxic concentration (CC50) of over 300 µM.

In the data set on Hepatitis B Virus [3], `Nc1ncnc2c1c(Cl)cn2[C@@H]1C=C(CO)[C@@H](O)[C@H]1O` [Compound 11, 7-Deaza-7-Chloro Neplanocin A] displayed an EC50 of over 10 µM and an EC90 of over 10 µM. The same compound yielded a CC50 in data set [4] of over 300 µM.

In the data set with Hepatitis B Virus [3], `Nc1ncnc2c1c(Br)cn2[C@@H]1C=C(CO)[C@@H](O)[C@H]1O` [Compound 12, 7-Deaza-7-Bromo Neplanocin A] came in with an EC50 of over 10 µM and a 90% effect concentration (EC90) of over 10 µM. Also, the CC50 in data set [4] is over 300 µM.

In the data set with Hepatitis B Virus [3], `Nc1ncnc2c1c(I)cn2[C@@H]1C=C(CO)[C@@H](O)[C@H]1O` [Compound 13, 7-Deaza-7-Iodo Neplanocin A] had an EC50 of 0.431 µM and an EC90 of 1.8 µM. Also, in the data set on Hepatitis B Virus [5], the EC50 came to 1.6 µM and the EC90 was determined as 5.9 µM. In addition, the CC50 in data set [4] is over 300 µM.

In the data set with Hepatitis B Virus [3], `N#Cc1cn([C@@H]2C=C(CO)[C@@H](O)[C@H]2O)c2ncnc(N)c12` [Compound 17, 7-Deaza-7-Cyano-Neplanocin A] had an EC50 of over 10 µM and an EC90 of over 10 µM. Further, in data set [4], the CC50 was over 300 µM.

As for `NC(=O)c1cn(C2C=C(CO)C(O)C2O)cn1` (centres unmarked) [Compound 17b, 1-(4,5-Dihydroxy-3-hydroxymethyl-cyclopenten-2-enyl)-1H-imidazole-4-carboxylic acid amide], in [6], the antiviral activity result is on record as “did not show any significant antiviral activity”.

Turning to `NC(=O)c1cn(C2C=C(CO)C(O)C2O)nn1` (centres unmarked) [Compound 17c, 1-(4,5-Dihydroxy-3-hydroxymethyl-cyclopenten-2-enyl)-1H-[1,2,3]triazole-4-carboxylic acid amide], the half-maximal effective concentration (EC50) with vacinnia virus amounted to 0.4 µM; in the data set on cowpox virus, 39 µM; in the data set on SARS virus, 47 µM.

Turning to `NC(=O)c1cn([C@@H]2C=C(CO)[C@@H](O)[C@H]2O)c2ncnc(N)c12` [Compound 18, 7-Deaza-7-Amido-Neplanocin A], in the data set on Hepatitis B Virus [3], the EC50 is over 10 µM and the EC90 was over 10 µM. The compound further had a CC50 in [4] of over 300 µM.

Compound `Nc1ncnc2c1c([N+](=O)[O-])cn2[C@@H]1C=C(CO)[C@H](O)C1O` (some centres unmarked) [Compound 22, 7—Deaza-7-Nitro-Neplanocin A] displayed a melting point of 245 to 246 °C. In addition, in the data set on Hepatitis B Virus [3] (Hepatitis B virus), the EC50 was over 10 µM and the 90% effect concentration (EC90) is over 10 µM. This compound returned a 50% cytotoxic concentration (CC50) in [4] of over 300 µM.

`C=Cc1cn([C@@H]2C=C(CO)[C@H](O)C2O)c2ncnc(N)c12` (some centres unmarked) [Compound 25, 7-Deaza-7-Vinyl-Substituted Neplanocin A] had a melting point of 168 to 170 °C. In addition, in the data set with Hepatitis B Virus [3] (Hepatitis B virus), the EC50 amounted to 3.3 µM and the 90% effect concentration (EC90) was 9.1 µM. Further, in the data set with Hepatitis B Virus [5] (Hepatitis B virus), a half-maximal effect (EC50) was put at 10 µM and it took 26 µM to reach the 90% level (EC90). Besides, the half-maximal cytotoxic concentration (CC50) in [4] was over 300 µM.

`C#Cc1cn([C@@H]2C=C(CO)C(O)C2O)c2ncnc(N)c12` (some centres unmarked) [Compound 27, 7-Deaza-7-Acetylene-Neplanocin A] had a melting point of 126 to 128 °C. In the data set on Hepatitis B Virus [3] (Hepatitis B virus), a half-maximal response (EC50) required 0.315 µM and it took 1.6 µM to reach the 90% level (EC90). In the data set on Hepatitis B Virus [5] (Hepatitis B virus), this compound came in with an EC50 of 1.8 µM and an EC90 of 7.9 µM. The same compound showed a cytotoxic concentration (CC50) in data set [4] of over 300 µM. In the data set on HBV strain WT (Hepatitis B virus), this compound returned an EC50 of 2.5 µM and an EC90 of 8.7 µM.

As for `C#Cc1cn([C@@H]2C=C(CO)C(O)C2O)c2ncnc(N)c12` (some centres unmarked) [drawing 37], the EC50 came out at 12.3 µM in the data set on HCV RNA replicon (setting [7]) and 20.1 µM in the data set with HCV RNA replicon (HT @ 100 μM, read-out: EC50). Moreover, the “Activity (% inhibition virus control)” value in the data set with HCV RNA replicon is reported as 73.3%. The half-inhibitory concentration (IC50) in data set [1] (HT20, HT @ 20 μM) was over 20 µM; in data set [1] (HT @ 100 μM), 48.9 µM. Also, the “Cytotoxicity (% cell control)” value in data set [1] is reported as 86.6%.
